Data on 11 molecules can be found in PubChem BioAssay AID284 (DTP/NCI, 2004).

SMILES strings stand for the structures. Where “and” joins values, the source holds several entries; their conditions need not be identical. Equal entries are not always repeated. Toxic doses and inconclusive results are not listed.

The subject of the experiment is BDF1 mice, L1210/MTX-resistant leukemia ip, survival T/C. In words: NCI In Vivo Anticancer Drug Screen. Data for tumor model L1210 Leukemia resistant to Methotrexate; NSC 740 (intraperitoneal) in B6D2F1 (BDF1) mice. The following applies: endpoint: mean survival time, higher = longer survival. As to the method: The antitumor activity of compounds was measured in mice bearing transplantable tumors. Survival or tumor size were measured and the results are expressed as the measurement made in the treated group (T) divided by the measurement made in the vehicle treated control group (C). The tumor model used in this assay is L1210 Leukemia resistant to Methotrexate; NSC 740 (intraperitoneal) in B6D2F1 (BDF1) mice

[1] abbreviates: dose: 12.0 mg/kg/injection, schedule: Q01DX Z (ip), vehicle: carboxymethylcellulose (CMC).
Setting [2] is: dose: 50.0 mg/kg/injection, schedule: Q01DX Z (ip), vehicle: carboxymethylcellulose (CMC).
Where [3] appears, read: dose: 100.0 mg/kg/injection, schedule: Q01DX Z (ip), vehicle: carboxymethylcellulose (CMC).
Setting [4] is: dose: 6.25 mg/kg/injection, schedule: Q01DX010 (ip), vehicle: saline.
[5] abbreviates: dose: 12.5 mg/kg/injection, schedule: Q01DX010 (ip), vehicle: saline.
Setting [6] is: dose: 12.5 mg/kg/injection, schedule: Q01DX Z (ip), vehicle: carboxymethylcellulose (CMC).
Where [7] appears, read: dose: 25.0 mg/kg/injection, schedule: Q01DX Z (ip), vehicle: carboxymethylcellulose (CMC).

As to `S=c1nc[nH]c2nc[nH]c12`, the T/C was 118 % of control (dose: 1.2 mg/kg/injection, schedule: Q01DX Z (ip), vehicle: carboxymethylcellulose (CMC)); 91 % of control (dose: 2.4 mg/kg/injection, schedule: Q01DX Z (ip), vehicle: carboxymethylcellulose (CMC)); 95 % of control (dose: 3.0 mg/kg/injection, schedule: Q01DX Z (ip), vehicle: carboxymethylcellulose (CMC)); 100 % of control (dose: 5.0 mg/kg/injection, schedule: Q01DX010 (ip), vehicle: alkali diluted with saline); 120 % of control and 91 % of control and 102 % of control (dose: 5.0 mg/kg/injection, schedule: Q01DX Z (ip), vehicle: alkali diluted with saline); 111 % of control (dose: 6.0 mg/kg/injection, schedule: Q01DX Z (ip), vehicle: carboxymethylcellulose (CMC)). Besides, the T/C (dose: 9.0 mg/kg/injection, schedule: Q01DX Z (ip), vehicle: carboxymethylcellulose (CMC)) is 95 % of control; the T/C (dose: 10.0 mg/kg/injection, schedule: Q01DX010 (ip), vehicle: alkali diluted with saline) is 99 % of control; the T/C (dose: 10.0 mg/kg/injection, schedule: Q01DX Z (ip), vehicle: alkali diluted with saline) was 94 % of control and 110 % of control; the T/C under setting [1] was 98 % of control; the T/C (dose: 20.0 mg/kg/injection, schedule: Q01DX010 (ip), vehicle: alkali diluted with saline) was 101 % of control; the T/C (dose: 20.0 mg/kg/injection, schedule: Q01DX Z (ip), vehicle: alkali diluted with saline) was 117 % of control and 91 % of control and 102 % of control. Also, the T/C (dose: 25.0 mg/kg/injection, schedule: Q01DX Z (ip), vehicle: other) is 93 % of control and 103 % of control; the T/C (dose: 36.0 mg/kg/injection, schedule: Q01DX Z (ip), vehicle: carboxymethylcellulose (CMC)) is 102 % of control; the T/C (dose: 40.0 mg/kg/injection, schedule: Q01DX010 (ip), vehicle: alkali diluted with saline) was 104 % of control; the T/C (dose: 80.0 mg/kg/injection, schedule: Q01DX010 (ip), vehicle: alkali diluted with saline) was 95 % of control; the T/C (dose: 100.0 mg/kg/injection, schedule: Q01DX Z (ip), vehicle: other) was 123 % of control and 98 % of control.
Consider `CS(=O)(=O)OCC(O)C(O)COS(C)(=O)=O` (stereo unspecified), for which the T/C by setting is: (dose: 18.8 mg/kg/injection, schedule: Q01DX Z (ip), vehicle: saline) 88 % of control; (dose: 37.5 mg/kg/injection, schedule: Q01DX Z (ip), vehicle: saline) 90 % of control; (dose: 75.0 mg/kg/injection, schedule: Q01DX Z (ip), vehicle: saline) 101 % of control.
As to `Nc1nc(=S)c2ncn(C3OC(CO)C(O)C3O)c2[nH]1` (stereo unspecified), the T/C runs as follows: (dose: 0.22 mg/kg/injection, schedule: Q01DX Z (ip), vehicle: carboxymethylcellulose (CMC)) 88 % of control; (dose: 0.45 mg/kg/injection, schedule: Q01DX Z (ip), vehicle: carboxymethylcellulose (CMC)) 88 % of control; (dose: 1.8 mg/kg/injection, schedule: Q01DX Z (ip), vehicle: carboxymethylcellulose (CMC)) 102 % of control.
With `Clc1ncnc2nc[nH]c12`, the T/C runs as follows: (dose: 7.5 mg/kg/injection, schedule: Q01DX010 (ip), vehicle: saline) 90 % of control; (dose: 15.0 mg/kg/injection, schedule: Q01DX010 (ip), vehicle: saline) 90 % of control and 96 % of control; (dose: 30.0 mg/kg/injection, schedule: Q01DX010 (ip), vehicle: saline) 92 % of control and 100 % of control; (dose: 60.0 mg/kg/injection, schedule: Q01DX010 (ip), vehicle: saline) 96 % of control.
Consider `C=CC(CN1CC1)OC(C)=O` (stereo unspecified), for which the T/C reads like this: (dose: 1.25 mg/kg/injection, schedule: Q01DX Z (ip), vehicle: saline) 119 % of control; (dose: 2.0 mg/kg/injection, schedule: Q01DX010 (ip), vehicle: saline) 123 % of control; (dose: 2.5 mg/kg/injection, schedule: Q01DX Z (ip), vehicle: saline) 107 % of control; (dose: 5.0 mg/kg/injection, schedule: Q01DX Z (ip), vehicle: saline) 102 % of control.
On to `CN(C)C(=S)N=Nc1c(O)[nH]c2ccccc12`, for which the T/C reads like this: (dose: 2.5 mg/kg/injection, schedule: Q01DX Z (ip), vehicle: carboxymethylcellulose (CMC)) 110 % of control; (dose: 5.0 mg/kg/injection, schedule: Q01DX Z (ip), vehicle: carboxymethylcellulose (CMC)) 106 % of control; (dose: 10.0 mg/kg/injection, schedule: Q01DX Z (ip), vehicle: carboxymethylcellulose (CMC)) 115 % of control; (dose: 20.0 mg/kg/injection, schedule: Q01DX Z (ip), vehicle: carboxymethylcellulose (CMC)) 95 % of control; under setting [2], 124 % of control; under setting [3], 86 % of control.
In the case of `CS(=O)(=O)OCCCCOS(C)(=O)=O`, the T/C was 88 % of control and 105 % of control (dose: 0.38 mg/kg/injection, schedule: Q01DX Z (ip), vehicle: methylcellulose (MC)); 93 % of control and 97 % of control (dose: 0.75 mg/kg/injection, schedule: Q01DX Z (ip), vehicle: methylcellulose (MC)); 97 % of control under setting [4]; 92 % of control and 93 % of control under setting [5]; 106 % of control under setting [6]; 91 % of control (dose: 25.0 mg/kg/injection, schedule: Q01DX010 (ip), vehicle: saline). The T/C (dose: 50.0 mg/kg/injection, schedule: Q01DX010 (ip), vehicle: saline) was 102 % of control.
For the molecule `CCn1cnc2c(=S)nc[nH]c21`, the T/C was 95 % of control under setting [1]; 102 % of control (dose: 15.6 mg/kg/injection, schedule: Q01DX010 (ip), vehicle: saline); 98 % of control (dose: 18.0 mg/kg/injection, schedule: Q01DX Z (ip), vehicle: carboxymethylcellulose (CMC)); 121 % of control under setting [7]; 90 % of control (dose: 31.3 mg/kg/injection, schedule: Q01DX010 (ip), vehicle: saline); 89 % of control (dose: 37.0 mg/kg/injection, schedule: Q01DX Z (ip), vehicle: carboxymethylcellulose (CMC)). For the same molecule, the T/C was 90 % of control under setting [3] and 90 % of control (dose: 125.0 mg/kg/injection, schedule: Q01DX010 (ip), vehicle: saline).
Regarding `O=P1(N(CCCl)CCCl)NCCCO1` (stereo unspecified), the T/C was 100 % of control (dose: 11.3 mg/kg/injection, schedule: Q01DX010 (ip), vehicle: saline); 98 % of control and 103 % of control (dose: 12.5 mg/kg/injection, schedule: Q01DX Z (ip), vehicle: saline); 174 % of control (dose: 22.5 mg/kg/injection, schedule: Q01DX Z (ip), vehicle: saline); 152 % of control (dose: 45.0 mg/kg/injection, schedule: Q01DX010 (ip), vehicle: saline); 87 % of control (dose: 90.0 mg/kg/injection, schedule: Q01DX010 (ip), vehicle: saline); 88 % of control and 109 % of control (dose: 100.0 mg/kg/injection, schedule: Q01DX Z (ip), vehicle: saline). Besides, the T/C (dose: 200.0 mg/kg/injection, schedule: Q01DX Z (ip), vehicle: saline) is 88 % of control and 103 % of control.
Regarding `[I][Hg][CH2]C1COC([CH2][Hg][I])CO1` (stereo unspecified), the T/C is 94 % of control (dose: 0.8 mg/kg/injection, schedule: Q01DX Z (ip), vehicle: methylcellulose (MC)); 94 % of control (dose: 1.6 mg/kg/injection, schedule: Q01DX Z (ip), vehicle: methylcellulose (MC)); 101 % of control under setting [4]; 103 % of control under setting [5].
For the molecule `Cn1c(N)nc2nc[nH]c2c1=S`, the T/C is 108 % of control (dose: 6.25 mg/kg/injection, schedule: Q01DX Z (ip), vehicle: carboxymethylcellulose (CMC)); 98 % of control (dose: 10.0 mg/kg/injection, schedule: Q01DX010 (ip), vehicle: saline); 90 % of control under setting [6]; 95 % of control (dose: 20.0 mg/kg/injection, schedule: Q01DX010 (ip), vehicle: saline); 104 % of control under setting [7]; 97 % of control (dose: 40.0 mg/kg/injection, schedule: Q01DX010 (ip), vehicle: saline). Besides, the T/C was 119 % of control under setting [2] and 115 % of control (dose: 80.0 mg/kg/injection, schedule: Q01DX010 (ip), vehicle: saline).
